Measured values as given in US20240041042A1, “1-(PYRIDYL)-5-AZINYLPYRAZOLE DERIVATIVES, AND THEIR USE FOR CONTROL OF UNDESIRED PLANT GROWTH” (Bayer Aktiengesellschaft, priority 2020, published 2024).
Like-named read-outs stand apart in the source and are kept apart here.

What was measured:
Format in all cases: in vivo
[1] = tested on: Alopecurus myosuroides (ALOMY); experiment: Post-emergence herbicidal action against ALOMY; details: visual rating about 3 weeks after treatment vs untreated controls (100% = plants have died, 0% = like control plants)
In short: (§1)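 Values are percent visual activity (0% like control, 100% plants dead) after about 3 weeks in the greenhouse. Treatment: post-emergence spray at one-leaf stage, 600 l/ha spray volume, 0.5% additive, doses 320 g/ha or lower.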

[2] = tested on: Digitaria sanguinalis (DIGSA); experiment: Post-emergence herbicidal action against DIGSA; details: visual rating about 3 weeks after treatment
In short: as §1

[3] = tested on: Echinochloa crus-galli (ECHCG); experiment: Post-emergence herbicidal action against ECHCG
In short: as §1

[4] = tested on: Lolium rigidum (LOLRI); experiment: Post-emergence herbicidal action against LOLRI
In short: as §1

[5] = tested on: Matricaria inodora (MATIN); experiment: Post-emergence herbicidal action against MATIN
In short: as §1

[6] = tested on: Pharbitis purpurea (PHBPU); experiment: Post-emergence herbicidal action against PHBPU
In short: as §1

[7] = tested on: Setaria viridis (SETVI); experiment: Post-emergence herbicidal action against SETVI
In short: as §1

[8] = tested on: Viola tricolor (VIOTR); experiment: Post-emergence herbicidal action against VIOTR
In short: as §1

[9] = tested on: Oryza sativa (ORYSA); details: crop plant compatibility
In short: (§2)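 Effects were read visually as % versus untreated controls (0% = no effect, 100% = death) about 3 weeks post-treatment. Application was a post-emergence spray at the one-leaf stage of WP/EC formulations with 0.5% additive at 600 l/ha. Different dosages are denoted a, b and c.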

[10] = tested on: Triticum aestivum (TRZAS); details: crop plant compatibility, effect vs untreated controls
In short: as §2

[11] = tested on: Zea mays (ZEAMX); details: for Post-emergence action against ZEAMX in % (crop plant compatibility): 20 g/ha, effect in comparison to untreated controls; for Post-emergence action against ZEAMX in %: crop plant compatibility, effect vs untreated controls
In short: as §2

[12] = tested on: Avena fatua (AVEFA); experiment: Post-emergence herbicidal action against AVEFA; details: visual rating about 3 weeks after treatment
In short: as §1

[13] = tested on: Polygonum convolvulus (POLCO); experiment: Post-emergence herbicidal action against POLCO
In short: as §1

[14] = tested on: Verconica persica (VERPE); experiment: Post-emergence herbicidal action against VERPE
In short: as §1

[15] = tested on: Amaranthus retroflexus (AMARE); experiment: Post-emergence herbicidal action against AMARE
In short: as §1

[16] = tested on: Abutilon theophrasti (ABUTH); experiment: Post-emergence herbicidal action against ABUTH; details: visual rating about 3 weeks after treatment vs untreated controls (100% = plants have died, 0% = like control plants)
In short: as §1

[17] = 20 g/ha, effect vs untreated controls
[18] = 80 g/ha, effect in comparison to untreated controls
[19] = 320 g/ha, visual rating about 3 weeks after treatment
[20] = 320 g/ha, effect in comparison to untreated controls

Post-emergence action against ORYSA in % [9, 17]	Post-emergence action against ORYSA in % [9, 18]	Post-emergence action against TRZAS in % ([10]; 20 g/ha)	Post-emergence action against ZEAMX in % (crop plant compatibility) [11]	Post-emergence action against ZEAMX in % ([11]; 80 g/ha)	Structure (SMILES)	Post-emergence action against ALOMY in % ([1]; 320 g/ha)	Post-emergence action against DIGSA in % ([2]; 320 g/ha)	Post-emergence action against ECHCG in % ([3]; dosage 320 g/ha)	Post-emergence action against LOLRI in % ([4]; dosage 320 g/ha)	Post-emergence action against MATIN in % ([5]; dosage 320 g/ha)	Post-emergence action against PHBPU in % ([6]; dosage 320 g/ha)	Post-emergence action against SETVI in % ([7]; dosage 320 g/ha)	Post-emergence action against VIOTR in % ([8]; 80 g/ha)	Post-emergence action against VIOTR in % ([8]; 320 g/ha)	Post-emergence action against AVEFA in % ([12]; 320 g/ha)	Post-emergence action against ECHCG in % ([3]; dosage 80 g/ha)	Post-emergence action against VERPE in % ([14]; 320 g/ha, VERPE)	Post-emergence action against VERPE in % ([14]; dosage 80 g/ha)	Post-emergence action against AMARE in % [15, 19]	Post-emergence action against DIGSA in % ([2]; 80 g/ha)	other results
10%	20%	10%	10%	10%	CCOC(=O)COc1nn(-c2ncccc2F)c(-c2ccnc(F)c2)c1Br [Example I-136]	90%	80%	80%	80%	80%	90%	90%	80%	80%	–	–	–	–	–	–	Post-emergence action against ZEAMX in % ([11]; 320 g/ha): 20%
0%	10%	0%	10%	10%	O=C(O)COc1nn(-c2ncccc2F)c(-c2cncc(F)c2)c1Cl [Example I-169]	–	90%	90%	80%	90%	90%	80%	–	80%	80%	80%	90%	80%	–	–	Post-emergence action against MATIN in % ([5]; dosage 80 g/ha): 80%; Post-emergence action against PHBPU in % ([6]; dosage 80 g/ha): 80%; Post-emergence action against POLCO in % ([13]; dosage 80 g/ha): 80%; Post-emergence action against POLCO in % ([13]; dosage 320 g/ha): 80%
10%	–	10%	20%	20%	O=C(COc1nn(-c2ncccc2F)c(-c2ccc(F)nc2)c1C1CC1)OCC1CCCC1 [Example I-251]	80%	90%	90%	90%	90%	–	90%	–	90%	90%	80%	90%	80%	90%	80%	Post-emergence action against LOLRI in % ([4]; dosage 80 g/ha): 90%
0%	10%	20%	0%	20%	O=C(COc1nn(-c2ncccc2F)c(-c2ccc(F)nc2)c1C1CC1)ON=C1CCCC1 [Example I-380]	90%	90%	90%	90%	–	–	90%	90%	90%	90%	80%	90%	80%	–	80%	Post-emergence action against ABUTH in % ([16]; 80 g/ha): 80%; Post-emergence action against ABUTH in % ([16]; 320 g/ha): 90%; Post-emergence action against AVEFA in % ([12]; 80 g/ha): 90%; Post-emergence action against LOLRI in % ([4]; dosage 80 g/ha): 90%; Post-emergence action against POLCO in % ([13]; dosage 320 g/ha): 80%; Post-emergence action against SETVI in % ([7]; dosage 80 g/ha): 80%
–	–	20%	10%	20%	COC(=O)CCOC(=O)COc1nn(-c2ncccc2F)c(-c2ccc(F)nc2)c1C1CC1 [Example I-383]	90%	90%	90%	90%	80%	–	80%	80%	90%	80%	80%	90%	80%	80%	80%	Post-emergence action against AVEFA in % ([12]; 80 g/ha): 80%; Post-emergence action against LOLRI in % ([4]; dosage 80 g/ha): 80%; Post-emergence action against SETVI in % ([7]; dosage 80 g/ha): 80%
0%	20%	20%	10%	20%	O=C(COc1nn(-c2ncccc2F)c(-c2ccc(F)nc2)c1C1CC1)OCc1ccccc1 [Example I-287]	90%	80%	90%	90%	80%	80%	90%	80%	90%	90%	90%	80%	80%	80%	80%	Post-emergence action against ABUTH in % ([16]; 320 g/ha): 90%; Post-emergence action against AMARE in % ([15]; 80 g/ha, visual rating about 3 weeks after treatment vs untreated controls (100% = plants have died, 0% = like control plants)): 80%; Post-emergence action against LOLRI in % ([4]; dosage 80 g/ha): 90%; Post-emergence action against SETVI in % ([7]; dosage 80 g/ha): 90%
10%	–	10%	20%	–	N#CCOC(=O)COc1nn(-c2ncccc2F)c(-c2ccc(F)nc2)c1C1CC1 [Example I-294]	90%	90%	90%	90%	90%	–	90%	90%	90%	90%	80%	90%	90%	80%	80%	Post-emergence action against ABUTH in % ([16]; 320 g/ha): 80%; Post-emergence action against SETVI in % ([7]; dosage 80 g/ha): 90%
0%	0%	0%	20%	–	Cc1ncccc1-n1nc(OCC(=O)O)c(Cl)c1-c1cncc(F)c1 [II-42]	90%	80%	90%	–	80%	90%	90%	80%	90%	90%	–	90%	80%	90%	–	Post-emergence action against ALOMY in % ([1]; 80 g/ha): 80%; Post-emergence action against POLCO in % ([13]; dosage 320 g/ha): 80%; Post-emergence action against ORYSA in % [9, 20]: 0%; Post-emergence action against TRZAS in % ([10]; 80 g/ha): 20%
0%	0%	0%	0%	0%	COC(=O)CCOC(=O)COc1nn(-c2cccnc2C)c(-c2cncc(F)c2)c1Br [II-41]	90%	80%	90%	–	80%	90%	90%	80%	90%	90%	–	90%	90%	80%	–	Post-emergence action against ABUTH in % ([16]; 320 g/ha): 80%; Post-emergence action against PHBPU in % ([6]; dosage 80 g/ha): 80%; Post-emergence action against ORYSA in % [9, 20]: 0%; Post-emergence action against TRZAS in % ([10]; 80 g/ha): 0%
20%	–	20%	–	–	O=C(O)COc1nn(-c2ccccn2)c(-c2ccc(F)nc2)c1Cl [Example I-266]	90%	90%	90%	90%	90%	90%	80%	80%	90%	–	80%	90%	80%	90%	–	Post-emergence action against MATIN in % ([5]; dosage 80 g/ha): 80%; Post-emergence action against PHBPU in % ([6]; dosage 80 g/ha): 80%; Post-emergence action against POLCO in % ([13]; dosage 80 g/ha): 80%; Post-emergence action against POLCO in % ([13]; dosage 320 g/ha): 90%
